Legend:
osteocalcin = assay: Serum osteocalcin suppression, 28-day repeat dose mouse model; assay type: in vivo; conditions: for Osteocalcin Suppression (ED80 dose): oral gavage 28 days, serum osteocalcin; for Serum osteocalcin (OC) EAUC50 / Serum osteocalcin (OC) EAUC80: data set 2, 28-day repeat dose model
[1] = target: full-length glucocorticoid (GR) protein (Homo sapiens (Human), UniProt P04150); assay: Glucocorticoid receptor fluorescence polarization ligand binding (GRFP) assay
Text: The glucocorticoid receptor fluorescence polarization ligand binding (GRFP) assay is used to evaluate direct binding of testing compounds to full-length glucocorticoid (GR) protein. Reagents for this assay are purchased from Invitrogen in a test kit. A fluorescent labeled GR ligand is used as a fluorescent tracer and test compounds compete with the fluorescent tracer for GR binding. The change in polarization value in the presence of test compounds is due to binding of test compounds to GR and is used to determine IC50 and relative binding affinity of test compounds for GR.

IL-6 = IL-6 production in IL-1β-stimulated A549 cells; assay type: cell-based, human
Experimental: IL-6 IC50 and % Inhibition
Human A549 lung epithelial cells (American Type Culture Collection, Rockville, Md.) were cultured in Kaighn's F-12K medium with penicillin-streptomycin (10 U/mL) and 10% heat-inactivated fetal bovine serum (all from Invitrogen, Grand Island, N.Y.). A549 cells were plated at a density of 30,000 cells/well in 96-well plates and incubated overnight at 37° C. and with 5% CO2. The cells were serum-starved by replacing the growth medium with serum-free Kaighn's F-12K medium with penicillin-streptomycin (10 U/mL) and, again, incubating overnight at 37° C. and with 5% CO2. On the third day, the medium was replaced with fresh serum-free medium and the cells were incubated with or without compound (vehicle was DMSO at 0.1% maximum concentration) for approximately 1 hour and then stimulated with 1 ng/mL recombinant human IL-1β (R&D Systems, Minneapolis, Minn.) for 20 hours at 37° C. and with 5% CO2. Cell supernatants were collected for determination of IL-6 levels using MSD (Meso Scale Discovery, Gaithersburg, Md.) 96-well Single Spot plates as per the manufacturer's instructions. Plates were read with an MSD Sector Imager 6000. […] Vehicle was used to define the 0% inhibition control. Percent inhibition for each compound concentration, relative to these controls, was calculated using Excel (Microsoft, Redmond, Wash.). […]

[2] = system: house dust mite-induced BAL inflammatory cell influx; assay: House dust mite model of asthma, BAL fluid cell infiltration; assay type: in vivo, mouse; conditions: mice, 0.1, 1 and 10 mg/kg, p.o., b.i.d.
TNFα = assay: LPS-induced serum TNFα suppression, 28-day repeat dose mouse model; assay type: in vivo
[3] = system: Mouse Collagen-Induced Arthritis; assay: Therapeutic mouse collagen-induced arthritis (mCIA) model; assay type: in vivo
Text: (§1) Mouse Collagen-induced arthritis is a commonly used chronic, preclinical model of rheumatoid arthritis in which joint swelling and bone destruction occur following immunization with type II collagen. Reduction of disease incidence and severity has been shown previously to be predictive of disease-modification and signs and symptoms mitigation, respectively, in a clinical setting.
In the therapeutic mCIA model, induction of disease incidence and severity was synchronized via LPS stimulation. Male DBA/J mice were immunized with 100 ug of bovine type II collagen (bCII) on day 0. All mice received an intraperitoneal injection of 20 μg of LPS on day 28 and disease was allowed to develop through day 34. At day 34, all mice had disease (incidence=100%) with an average severity score of seven. Dosing of compounds was initiated in the therapeutic mode on day 34 and continued through day 49. Different treatments were compared by measuring the decrease in incidence (i.e., resolution of disease) and the decrease in severity of paw swelling over time.

[4] = system: Mouse Collagen-Induced Arthritis; assay: Traditional mouse collagen-induced arthritis (mCIA) model; assay type: in vivo
Experimental: as §1
In the traditional mCIA model, male DBA/J mice were immunized with 50 μg chick type II collagen (cCII) in complete Freund's adjuvant and then boosted 21 days later with 50 μg cCII in incomplete Freund's adjuvant. Treatment with compounds was initiated on the morning of the boost and continued for 56 days. The effectiveness of treatment was measured by disease incidence (i.e., number of mice showing any sign of disease) and disease severity, both of which were measured twice a week.

[5] = Solubility and intrinsic dissolution; assay type: physicochemical; conditions: compared with Example 1
[6] = Plasma exposure (AUC) in the mouse; assay type: in vivo
Text: Drug exposure, defined as drug plasma concentrations integrated over time
Due to blood volume sampling limitations in mice, AUC(0-4 hr) values were used to make pharmacodynamic comparisons.

[7] = system: cortical bone formation rate; assay: Cortical bone histomorphometry, bone formation rate (BFR); assay type: in vivo, mouse
Experimental: Sigma-Aldrich, St. […] Calcein incorporates into the bone mineral and allows measurement of bone formation rate. Calcein was dissolved in 2% sodium bicarbonate. During the tissue harvest, the left tibiae were excised and cleaned for cortical histomorphometry measurements. After all skin and muscle were removed, tibiae were placed in 70% ethanol (4° C.) in the dark for a minimum of 24 hours. Ground transverse sections were used for histomorphometric analysis of cortical bone. Bones were sectioned using a low-speed saw (Isomet, Buehler, Lake Bluff, Ill.) equipped with a diamond wafer blade. The end of each tibia was removed proximal to tibia-fibula synostosis and a […] cross-section was cut. Using a roughened glass plate and a cork, sections were ground to […] until transparent and all labels were distinguishable under a fluorescent microscope. […] Sigma-Aldrich, St. Louis, Mo.). Sections were mounted using Eukitt Quick Mounting Medium (#03989, Sigma-Aldrich, St. Louis, Mo.) after which coverslip was applied. […] Bone formation rate was calculated by the following equation: (Inter-label width/Label interval)*(Labeled perimeter/Bone perimeter). At least five samples were measured from each treatment group in each study.

[8] = data set 2, 28-day repeat dose model, unit assumed
[9] = data set 2, 28-day repeat dose model

full-length glucocorticoid (GR) protein, sequence (P04150 whole entry): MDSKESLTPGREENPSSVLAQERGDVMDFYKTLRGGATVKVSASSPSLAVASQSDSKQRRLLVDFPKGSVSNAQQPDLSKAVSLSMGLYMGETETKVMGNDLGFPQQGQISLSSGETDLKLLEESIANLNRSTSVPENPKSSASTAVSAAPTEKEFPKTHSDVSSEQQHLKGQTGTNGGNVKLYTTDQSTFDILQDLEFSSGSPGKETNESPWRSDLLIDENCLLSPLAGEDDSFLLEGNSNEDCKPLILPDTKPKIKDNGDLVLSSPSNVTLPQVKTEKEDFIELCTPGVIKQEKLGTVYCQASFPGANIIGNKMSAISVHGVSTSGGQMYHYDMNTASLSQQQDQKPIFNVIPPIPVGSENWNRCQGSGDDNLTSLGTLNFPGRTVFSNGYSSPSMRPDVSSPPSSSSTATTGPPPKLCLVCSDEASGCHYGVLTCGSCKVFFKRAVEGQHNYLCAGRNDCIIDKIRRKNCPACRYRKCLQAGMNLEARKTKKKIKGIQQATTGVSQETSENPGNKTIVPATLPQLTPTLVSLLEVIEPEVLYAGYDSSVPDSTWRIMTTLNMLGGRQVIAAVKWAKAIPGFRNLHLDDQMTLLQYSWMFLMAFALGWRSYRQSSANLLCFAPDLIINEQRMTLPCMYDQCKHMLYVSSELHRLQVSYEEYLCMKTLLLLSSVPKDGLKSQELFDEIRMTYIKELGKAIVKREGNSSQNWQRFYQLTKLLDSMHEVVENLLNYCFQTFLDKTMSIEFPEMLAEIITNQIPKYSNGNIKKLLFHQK

Cc1cnc(NC(=O)c2ccc3c(c2)CC[C@@H]2C[C@@](O)(C(F)(F)F)CC[C@@]32Cc2ccccc2)c(C)n1 [Comparator B, (4βS,7R,8αR)-4β-benzyl-N-(3,5-dimethylpyrazin-2-yl)-7-hydroxy-7-(trifluoromethyl)-4β,5,6,7,8,8α,9,10-octahydrophenanthrene-2-carboxamide]
Osteocalcin Suppression (ED80 dose) (osteocalcin; mouse): >10 mg/kg

Cc1ncccc1NC(=O)c1ccc2c(c1)CC[C@@H]1C[C@@](O)(CCC(F)(F)F)CC[C@@]21Cc1ccccc1 [Comparator C, (4βS,7S,8αR)-4β-benzyl-7-hydroxy-N-(2-methylpyridin-3-yl)-7-(3,3,3-trifluoropropyl)-4β,5,6,7,8,8α,9,10-octahydrophenanthrene-2-carboxamide]
Osteocalcin Suppression (ED80 dose) (osteocalcin; mouse): 2.84 mg/kg

Cc1ccncc1NC(=O)c1ccc2c(c1)CC[C@@H]1C[C@@](O)(C(F)(F)F)CC[C@@]21Cc1ccccc1 [Comparator D, (4βS,7R,8αR)-4β-benzyl-7-hydroxy-N-(4-methylpyridin-3-yl)-7-(trifluoromethyl)-4β,5,6,7,8,8α,9,10-octahydrophenanthrene-2-carboxamide]
Osteocalcin Suppression (ED80 dose) (osteocalcin; mouse): 3.06 mg/kg

Cc1ncccc1NC(=O)c1ccc2c(c1)C(=O)C[C@@H]1C[C@@](O)(C(F)(F)F)CC[C@@]21Cc1ccccc1 [Comparator E, (4βS,7R,8αS)-4β-benzyl-7-hydroxy-N-(2-methylpyridin-3-yl)-10-oxo-7-(trifluoromethyl)-4β,5,6,7,8,8α,9,10-octahydrophenanthrene-2-carboxamide]
Osteocalcin Suppression (ED80 dose) (osteocalcin; mouse): 1.71 mg/kg

Cc1ncccc1NC(=O)c1ccc2c(c1)[C@H](O)C[C@@H]1C[C@@](O)(C(F)(F)F)CC[C@@]21Cc1ccccc1 [Comparator F, (4βS,7R,8αR,10R)-4β-benzyl-7,10-dihydroxy-N-(2-methylpyridin-3-yl)-7-(trifluoromethyl)-4β,5,6,7,8,8α,9,10-octahydrophenanthrene-2-carboxamide]
Osteocalcin Suppression (ED80 dose) (osteocalcin; mouse): >10 mg/kg

Cc1c(NC(=O)c2ccc3c(c2)CC[C@@H]2C[C@@](O)(C(F)(F)F)CC[C@@]32Cc2ccccc2)ccc[n+]1[O-] [Comparator G]
IC50 [1]: 2.13 nM

Cc1ncccc1NC(=O)c1ccc2c(c1)CC[C@@H]1C[C@@](O)(C(F)F)CC[C@@]21Cc1ccccc1 [Comparator H, (4βS,7R,8αR)-4β-benzyl-7-(difluoromethyl)-7-hydroxy-N-(2-methylpyridin-3-yl)-4β,5,6,7,8,8α,9,10-octahydrophenanthrene-2-carboxamide]
Osteocalcin Suppression (ED80 dose) (osteocalcin; mouse): 1.46 mg/kg

Cc1ncccc1NC(=O)c1ccc2c(c1)C=C[C@@H]1C[C@@](O)(C(F)(F)F)CC[C@@]21Cc1ccccc1 [Comparator I, (4βS,7R,8αS)-4β-benzyl-7-hydroxy-N-(2-methylpyridin-3-yl)-7-(trifluoromethyl)-4β,5,6,7,8,8α-hexahydrophenanthrene-2-carboxamide]
Osteocalcin Suppression (ED80 dose) (osteocalcin; mouse): >20 mg/kg

Cc1ncc(NC(=O)c2ccc3c(c2)CC[C@@H]2C[C@@](O)(CCC(F)(F)F)CC[C@@]32Cc2ccccc2)c(C)n1 [Comparator J, (4βS,7S,8αR)-4β-benzyl-N-(2,4-dimethylpyrimidin-5-yl)-7-hydroxy-7-(3,3,3-trifluoropropyl)-4β,5,6,7,8,8α,9,10-octahydrophenanthrene-2-carboxamide]
Osteocalcin Suppression (ED80 dose) (osteocalcin; mouse): 3.58 mg/kg

Cc1ncccc1NC(=O)c1ccc2c(c1)CC[C@@H]1C[C@@](O)(C(F)(F)F)CC[C@@]21Cc1ccccc1 [Example 1, (4βS,7R,8αR)-4β-benzyl-7-hydroxy-N-(2-methylpyridin-3-yl)-7-(trifluoromethyl)-4β,5,6,7,8,8α,9,10-octahydrophenanthrene-2-carboxamide]
IC50 (IL-6; IL-1β 1 ng/mL, listed as Example 1 free base): 0.36 nM | Serum osteocalcin (OC) EAUC50 (osteocalcin): 1310 ng·h/mL | Serum osteocalcin (OC) EAUC80 (osteocalcin): 4150 ng·h/mL | cell infiltration into BAL fluid [2]: mitigated cell infiltration into BAL fluid dose-dependently | Serum TNFα EAUC50 (TNFα; [8]): 0.22 µg·h/mL | Serum TNFα EAUC80 (TNFα; [8]): 0.33 µg·h/mL | Disease incidence (therapeutic mCIA) EAUC50 ([3]; data set 2): 0.12 µg·h/mL | Disease incidence (therapeutic mCIA) EAUC80 ([3]; data set 2): 0.33 µg·h/mL | Disease severity (therapeutic mCIA) EAUC50 ([3]; data set 2, unit assumed): 0.09 µg·h/mL | Disease severity (therapeutic mCIA) EAUC80 ([3]; data set 2, unit assumed): 0.19 µg·h/mL | Therapeutic mCIA (ED50 dose) ([3]; mouse): less than 1 mg/kg | Disease incidence (traditional mCIA) EAUC80 ([4]; data set 2): 0.10

Cc1ncccc1NC(=O)c1ccc2c(c1)CC[C@@H]1C[C@@](OP(=O)(O)O)(C(F)(F)F)CC[C@@]21Cc1ccccc1 [Example 2, (2R,4αS,10αR)-4α-benzyl-7-((2-methylpyridin-3-yl)carbamoyl)-2-(trifluoromethyl)-1,2,3,4,4α,9,10,10α-octahydrophenanthren-2-yl dihydrogen phosphate]
solubility and intrinsic dissolution [5]: enhanced

C[C@]12C=CC(=O)C=C1CC[C@@H]1[C@@H]2[C@@H](O)C[C@@]2(C)[C@H]1CC[C@]2(O)C(=O)CO [Prednisolone]
IL-6 % Inhibition (IL-6; additional result (footnote a)): 100% | Serum osteocalcin EAUC50 (osteocalcin; AUC 0-4 hr, mouse): 560 ng·h/mL | Serum osteocalcin EAUC80 (osteocalcin; AUC 0-4 hr, mouse): 1600 ng·h/mL | Serum osteocalcin (OC) EAUC50 (osteocalcin): 560 ng·h/mL | Serum osteocalcin (OC) EAUC80 (osteocalcin): 1640 ng·h/mL | AUC(0-4 hr) as share of AUC(0-24 hr) [6]: more than 95% | Serum TNFα EAUC50 (TNFα; AUC 0-4 hr, mouse): 0.81 µg·h/mL | Serum TNFα EAUC80 (TNFα; AUC 0-4 hr, mouse): 0.95 µg·h/mL | Serum TNFα EAUC50 (TNFα; [8]): 0.82 µg·h/mL | Serum TNFα EAUC80 (TNFα; [8]): 0.95 µg·h/mL | TNFα Suppression (ED80 dose) (TNFα; mouse, oral gavage 28 days, LPS-induced serum TNFα): 2.10 mg/kg | Disease severity (therapeutic mCIA) EAUC50 ([3]; AUC 0-4 hr, mouse): 0.38 µg·h/mL | Disease severity (therapeutic mCIA) EAUC80 ([3]; AUC 0-4 hr, mouse): 1.19 µg·h/mL | Disease incidence (therapeutic mCIA) EAUC50 ([3]; data set 2): 0.68 µg·h/mL | Disease incidence (therapeutic mCIA) EAUC80 ([3]; data set 2): 1.38 µg·h/mL | Disease severity (therapeutic mCIA) EAUC50 ([3]; data set 2, unit assumed): 0.38 µg·h/mL | Disease severity (therapeutic mCIA) EAUC80 ([3]; data set 2, unit assumed): 1.19 µg·h/mL | Therapeutic mCIA (ED80 dose) ([3]; mouse): 5.5 mg/kg | Cortical bone formation rate (BFR) EAUC50 ([7]; AUC 0-4 hr, mouse): 0.09 µg·h/mL | Cortical bone formation rate (BFR) EAUC80 ([7]; AUC 0-4 hr, mouse): 0.60 µg·h/mL | Cortical bone formation rate (BFR) EAUC50 [7, 9]: 0.10 | Cortical bone formation rate (BFR) EAUC80 [7, 9]: 0.66 | Disease incidence (traditional mCIA) EAUC50 ([4]; AUC 0-4 hr, mouse): 0.25 µg·h/mL | Disease incidence (traditional mCIA) EAUC80 ([4]; AUC 0-4 hr, mouse): 0.60 µg·h/mL | Disease incidence (traditional mCIA) EAUC80 ([4]; data set 2): 0.50

From patent publication US8901310B2, “Tricyclic compounds, compositions, and methods” (Pfizer Inc., priority 2007, dated 2014)
